Reference: the supplement of paper PMC5908809

Experiments:
[1] = tested on: NKL (IL-2 2.5 ng/mL); experiment: percent inhibition of viability; higher = more inhibition; conditions: 72 h
[2] = tested on: IMC-1 (IL-2 20 ng/mL); experiment: as above; conditions: 72 h
[3] = tested on: normal primary NK cells, pool 1 (3 donors) (IL-2 2.5 ng/mL); experiment: as above; conditions: 72 h
[4] = tested on: normal primary NK cells, pool 3 (3 donors) (IL-2 2.5 ng/mL); experiment: as above; conditions: 72 h
[5] = tested on: normal primary NK cells, pool 2 (3 donors) (IL-2 2.5 ng/mL); experiment: as above; conditions: 72 h
[6] = tested on: KAI3 (IL-2 2.5 ng/mL); experiment: as above; conditions: 72 h
[7] = tested on: NK-YS (IL-2 2.5 ng/mL); experiment: as above; conditions: 72 h
[8] = tested on: normal primary NK cells, pool 1 (3 donors), resting (IL-2 0 ng/mL); experiment: as above; conditions: 72 h
[9] = tested on: KHYG-1 (IL-2 2.5 ng/mL); experiment: as above; conditions: 72 h
[10] = tested on: NK-92 (IL-2 2.5 ng/mL); experiment: as above; conditions: 72 h
[11] = tested on: YT (IL-2 2.5 ng/mL); experiment: as above; conditions: 72 h
[12] = tested on: SNK-6 (IL-2 2.5 ng/mL); experiment: as above; conditions: 72 h
[13] = tested on: DERL-7 (IL-2 2.5 ng/mL); experiment: as above; conditions: 72 h
[14] = tested on: normal NK cells expanded with K562-aAPC; experiment: as above; conditions: 72 h, IL-2 2.5 ng/mL
Experimental: (§1)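 Drug sensitivity and resistance testing on K562-aAPC-expanded normal NK cells: 5 concentrations (10-fold steps over a 10,000-fold range), 72 h at 37 °C, viability by CellTiter-Glo normalised to DMSO and benzethonium chloride controls; DSS from the fitted curve.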

[15] = tested on: normal NK cells expanded with K562-aAPC; experiment: drug sensitivity score (DSS) (DSS units); higher = more sensitive; extreme values may be limits of the assay; conditions: 72 h; IL-2 2.5 ng/mL
Experimental: as §1

[16] = tested on: NKL (IL-2 2.5 ng/mL); experiment: as above; conditions: 72 h
[17] = tested on: IMC-1 (IL-2 20 ng/mL); experiment: as above; conditions: 72 h
[18] = tested on: normal primary NK cells, pool 1 (3 donors) (IL-2 2.5 ng/mL); experiment: as above; conditions: 72 h
[19] = tested on: normal primary NK cells, pool 3 (3 donors) (IL-2 2.5 ng/mL); experiment: as above; conditions: 72 h
[20] = tested on: normal primary NK cells, pool 2 (3 donors) (IL-2 2.5 ng/mL); experiment: as above; conditions: 72 h
[21] = tested on: KAI3 (IL-2 2.5 ng/mL); experiment: as above; conditions: 72 h
[22] = tested on: NK-YS (IL-2 2.5 ng/mL); experiment: as above; conditions: 72 h
[23] = tested on: normal primary NK cells, pool 1 (3 donors), resting (IL-2 0 ng/mL); experiment: as above; conditions: 72 h
[24] = tested on: KHYG-1 (IL-2 2.5 ng/mL); experiment: as above; conditions: 72 h
[25] = tested on: NK-92 (IL-2 2.5 ng/mL); experiment: as above; conditions: 72 h
[26] = tested on: YT (IL-2 2.5 ng/mL); experiment: as above; conditions: 72 h
[27] = tested on: SNK-6 (IL-2 2.5 ng/mL); experiment: as above; conditions: 72 h
[28] = tested on: DERL-7 (IL-2 2.5 ng/mL); experiment: as above; conditions: 72 h

CCN1CCN(Cc2ccc(Nc3ncc(F)c(-c4cc(F)c5nc(C)n(C(C)C)c5c4)n3)nc2)CC1 [Abemaciclib] (max concentration tested 2500 nM)
percent inhibition of viability [%]
Conditions | 0.25 nM | 2.5 nM | 25 nM | 250 nM | 2500 nM
[1] | -11.9 | -8.91 | -19.3 | -11.8 | 38
[2] | 1.3 | -5.47 | -5.79 | -18.8 | 97.5
[3] | -4.8 | -6.62 | -2.33 | 9.08 | 24.4
[4] | -10.9 | -4.53 | -8.73 | -3.71 | 11.1
[5] | -7.88 | -7.14 | 0.77 | 1.36 | 50.7
[6] | -4.55 | -3.34 | -6.9 | -4.76 | 11.8
[7] | -3.7 | -3.12 | 0.09 | 18 | 95
[8] | -12.7 | -5.25 | -10.3 | -47.3 | -83.7
[9] | -1.33 | -1.51 | -0.04 | 42.8 | 79.8
[10] | -9.23 | 0.87 | -2.31 | 7.25 | 42
[11] | -0.11 | 3.29 | -1.68 | 5.51 | 7.94
[12] | 22.8 | 13.2 | 4.72 | 15.4 | 29.8
[13] | -4.64 | -2.09 | 8.58 | 51.3 | 73.9
[14] | 2.02 | -3.3 | 4.81 | 17.7 | 41.3

Conditions | drug sensitivity score
[15] | 3.89
[16] | 1.33
[17] | 4.41
[18] | 2.05
[19] | 0
[20] | 2.85
[21] | 0.01
[22] | 8.19
[23] | 0.89
[24] | 9.69
[25] | 3.33
[26] | 0
[27] | 0.14
[28] | 10.8

CCc1cc2c(cc1N1CCC(N3CCOCC3)CC1)C(C)(C)c1[nH]c3cc(C#N)ccc3c1C2=O [Alectinib] (max concentration tested 1000 nM)
percent inhibition of viability [%]
Conditions | 0.1 nM | 1 nM | 10 nM | 100 nM | 1000 nM
[1] | -9 | -7.92 | -11.6 | -10.4 | 20.1
[2] | -2.94 | 1.06 | -2.15 | -2.79 | -0.64
[3] | -1.7 | -9.82 | -10.4 | -1.45 | 0.6
[4] | -8.17 | -9.65 | -5.32 | -8.21 | -0.39
[5] | -3.03 | -7.68 | -3.35 | -8.46 | 3.39
[6] | -3.74 | 3.89 | 3.63 | 1.36 | -4
[7] | -5.67 | -3.61 | -7.75 | 6.14 | 18.4
[8] | -6.37 | -4.08 | -8.77 | 1.83 | 12.5
[9] | -3.94 | 0.6 | -1.88 | 10.3 | 14.5
[10] | -7.49 | -8.89 | -12 | 9.46 | 24.4
[11] | -3.8 | -4.08 | -6.26 | 0.11 | 2.48
[12] | -2.43 | -0.7 | -18.9 | -29 | -2.44
[13] | -1.51 | -2.79 | -1.59 | -8.82 | 13
[14] | 0.14 | -2.95 | -2.33 | -2.36 | 4.52

Conditions | drug sensitivity score
[15] | 0
[16] | 0.33
[17] | 0
[18] | 0
[19] | 0
[20] | 0
[21] | 0
[22] | 1.14
[23] | 0.17
[24] | 0.86
[25] | 2.08
[26] | 0
[27] | 0
[28] | 0.02

Oc1ncnc2[nH]ncc12 [Allopurinol] (max concentration tested 10000 nM)
percent inhibition of viability [%]
Conditions | 1 nM | 10 nM | 100 nM | 1000 nM | 10000 nM
[1] | 1.32 | 3.75 | 2.9 | 25.9 | 26
[2] | 0.44 | 0.22 | 0.39 | 1.15 | 17.8
[3] | -1.72 | 15.7 | 6.17 | 6.91 | 4.11
[4] | -2.7 | 8.19 | 6.53 | 0 | 8.15
[5] | 4.21 | 8.86 | 8.54 | 1.11 | 5.24
[6] | 17.2 | 10.9 | 9.45 | 11.5 | 25.8
[7] | 2.79 | -1.6 | -0.2 | 4.55 | 19.6
[8] | 22.9 | 25.1 | 18.7 | 23.7 | 20.5
[9] | -9.33 | -11.3 | -5.44 | -3.66 | 4.19
[10] | 6.41 | 11.2 | 3.55 | 20.5 | 30.9
[11] | -7.85 | -8.54 | -5.69 | -2.75 | 18
[12] | 11.9 | -22.5 | -2.24 | -13.2 | 5.06
[13] | 2.01 | 4.75 | 3.34 | 1.14 | -11.8
[14] | -3.35 | -7.15 | -3.73 | 3.65 | 10.3

Conditions | drug sensitivity score
[15] | 0.01
[16] | 4.59
[17] | 0.55
[18] | 0
[19] | 0
[20] | 0
[21] | 0
[22] | 1.14
[23] | 0
[24] | 0
[25] | 3.57
[26] | 0.33
[27] | 0
[28] | 0

Cc1nc(NC(=O)N2CCC[C@H]2C(N)=O)sc1-c1ccnc(C(C)(C)C(F)(F)F)c1 [Alpelisib] (max concentration tested 2500 nM)
percent inhibition of viability [%]
Conditions | 0.25 nM | 2.5 nM | 25 nM | 250 nM | 2500 nM
[1] | -4.18 | 0.03 | 10.1 | 5.23 | 12.8
[2] | 3.85 | 3.43 | 5.77 | 4.62 | 5.3
[3] | -6.99 | -1.42 | -4.27 | 3.43 | 6.48
[4] | -7.64 | -5.69 | -6.05 | 0.32 | 2.93
[5] | -4.3 | -1.23 | 0.06 | 3.89 | 11.4
[6] | 6.58 | 6.32 | 4.01 | 8.23 | 30.4
[7] | -0.06 | -1.74 | 4.37 | 2.5 | 12.7
[8] | -10.5 | 5.01 | -8.93 | 6.1 | 10.3
[9] | -0.82 | 0.62 | 4.26 | 2.48 | 8.78
[10] | -1.19 | 0.59 | 11.2 | 7.16 | 16.2
[11] | -0.82 | 0.14 | 1.96 | 2.35 | 13
[12] | -6.11 | 8.58 | 10.5 | 15.4 | 29
[13] | -4.58 | -9.56 | -0.97 | -2.79 | 25.6
[14] | 0.72 | 1.85 | -0.5 | 3.19 | 30.6

Conditions | drug sensitivity score
[15] | 1.85
[16] | 0.2
[17] | 0
[18] | 0
[19] | 0
[20] | 0.14
[21] | 2.35
[22] | 0.18
[23] | 0.03
[24] | 0
[25] | 0.74
[26] | 0.26
[27] | 3.22
[28] | 0.82

O=C1CN2Cc3c(ccc(Cl)c3Cl)N=C2N1 [Anagrelide] (max concentration tested 10000 nM)
percent inhibition of viability [%]
Conditions | 1 nM | 10 nM | 100 nM | 1000 nM | 10000 nM
[1] | -8 | -3.63 | 5.32 | 5.47 | 9.73
[2] | -2 | -2.1 | 0.73 | -7.98 | 0.69
[3] | -7.17 | 12.1 | 9.62 | 3.68 | 6.66
[4] | -7.45 | -4.06 | -2.15 | -4.72 | -5.66
[5] | -5.09 | 5.68 | 10.3 | 2.48 | 5.2
[6] | -3.01 | -16.8 | 2.67 | 7.81 | 26.7
[7] | -1.23 | -6.42 | 0.98 | -1.47 | 9.94
[8] | -14.4 | 8.37 | 10.8 | 4.74 | 9.32
[9] | -5.21 | -5.67 | -5.27 | 2.55 | 2.12
[10] | -16.3 | -4.98 | 5.49 | 11 | 18.2
[11] | -4.72 | -11.3 | -2.78 | -6.4 | 13
[12] | -14.4 | -27.6 | -25 | 10.6 | 16.6
[13] | 0.58 | -15.8 | 5.22 | -2.15 | -3.54
[14] | -10.7 | -8.47 | -7.13 | 1.09 | 4.94

Conditions | drug sensitivity score
[15] | 0
[16] | 0
[17] | 0
[18] | 0
[19] | 0
[20] | 0
[21] | 2.01
[22] | 0
[23] | 0.58
[24] | 0
[25] | 1.23
[26] | 0.03
[27] | 1.18
[28] | 0
